These results are taken from US20090221684A1, “Molecules for Gene Delivery and Gene Therapy, and Methods of Use Thereof” (priority 2005, published 2009).

Where two headings read alike, the source gives them in different places.

The test system of data set [1] is Chinese hamster ovarian (CHO) cells. As to the kind of experiment: β-galactosidase reporter gene transfection in CHO cells. The class given is cell-based.
Experimental: The reporter gene was first mixed with the lipids in potassium phosphate buffer (PBS) at room temperature. We tested two different lipid/DNA ratios (5:1; and 20:1) while keeping the zwitterionic/DOTAP ratio constant at 1:1. Next, the lipid/DNA complexes were added to the cells. The amount of DNA used was the same as used in the naked DNA control (no lipid), and the negative control was compound 4 without DNA. After incubation at 37° C. and 5% CO2 for 2 h, the medium was removed and fresh growth medium was added. Transfection efficiencies were assessed after 48 h using the β-galactosidase enzyme assay in conjunction with a standard curve. The efficiency of each transfection was calculated as β-gal activity normalized to total protein.
Transfection assays were performed using the well established beta-galactosidase transfection assay. In these experiments the beta-galactosidase gene is transfected into cells. Next, the expressed enzyme then cleaves a chemiluminescent reporter that is detected. […]
Chinese hamster ovarian cells (CHO, ATCC, Manassas, Va.) were cultured in complete F12K media (ATCC) containing 10% fetal calf serum (Sigma) and 1% penicillin and streptomycin (500 IU/ml and 5000 μg/ml, respectively, Mediatech, Herndon, Va.) at 37° C. in 5% CO2 with humidity. […] Transfection efficiencies were assessed 24 h to 48 h post transfection depending on the experimental design. […]
Data set [2] relates to CHO cells. The experiment in a line: Cytotoxicity, formazan-based proliferation assay and total protein assay, CHO cells. The following applies: for cytotoxicity (cell proliferation/number as percentage of non-treated cells): 24 hours after addition. As to the method: Cytotocixity experiments were also performed with CHO and L6 cells using a formazan-based proliferation assay and a total protein assay. The cells were seeded onto a 96-multiwell plate with an appropriate density of 1×10^4 cells per well. […] After another 24 hours, cell proliferation/number was determined and expressed as a percentage of non-treated cells.
Cytotoxicity was assessed using both a formazan-based proliferation assay (CellTiter 96 AQueous One Solution Cell Proliferation Assay kit, Promega) and a total protein-based assay (Pierce). Briefly, CHO cells were seeded onto a multi-well microtiter plate with an appropriate density, depending on the size of the well (e.g., 1×10^4 cells per well in a 96-well plate). After 48 h, MTS substrate was added to each well and the plate and incubated for 4 h at 37° C. in a humidified, 5% CO2 incubator. The amount of soluble formazan produced by cellular reduction of the substrates MTS was recorded at 490 nm using a multi-well plate reader. For the total protein-based proliferation assay, cells were lysed at the same time when transfection efficiency was assayed. A 5 μL of lysates were transferred to a separate multi-well plate. Total protein contents were assessed using the Coomassie Blue protein kit (Pierce, Rockford, Ill.) following the manufacturer protocol. Negative and positive controls were non-treated cells and commercial lipids treated cells, respectively. The proliferation results were expressed as percentages of non-treated cells.

Data set [3] deals with CHO cells. As to the kind of experiment: Gene transfection efficiency in a cell population by optical microscopy. The class given is cell-based, Chinese hamster. The following applies: reporter gene β-gal. The text has this:
Importantly, more than 70% of the cells had been transfected as compared to less than 40% when using other transfection reagents.
(In general: In a reporter assay the amount or activity of a reporter protein is the signal.)

Data set [4] relates to GAPDH. As to the kind of experiment: siRNA delivery, KDalert GAPDH gene knockdown assay. The class given is cell-based. The following applies: 48 hr after siRNA transfection. On the procedure:
Trypsine adherent cells and dilute in normal growth medium to 1×10^5 cells per ml. […] Dilute RNA in serum free medium. Mix the diluted RNA with the transfectant reagent, incubate for 10 min at room temperature and dispense into a culture plate. Depending on the experimental design, the ration of lipid, siRNA, pH, and incubation time was varied. Overlay cell suspension onto the transfection mixture. Incubate at 37° C. and 5% CO2. Assay for gene knockdown were assessed after 48 h depending on the experimental protocol.
The gene knockdown assay performed was KDalert™ GAPDH Assay (Ambion) following the manufacturer protocol. Briefly, 48 hr after siRNA transfection, aspirate the culture medium from transfected cells. Add 200 μl KDalert Lysis Buffer to each sample well. Incubate at 4° C. for 20 min to lyse the cells. Pipet the cell lysate up and down 4-5 times to homogenize the lysate. Transfer 10 μl of each lysate or GAPDH Enzyme dilution (including the GAPDH Working Stock) to the wells of a clean 96 well plate. Working quickly, add 90 μl of KDalert Master Mix to each sample using a multi-channel pipettor to dispense the KDalert Master Mix quickly. Measure the increase in fluorescence of the samples at room temp. Using the reagent above we saw greater than 80% knockdown of the protein.

The nature of data set [5]: Differential scanning calorimeter (DSC) trace of hydrated amphiphile. The class given is physicochemical. In general terms: In DSC, transitions show as peaks or steps in heat flow.
Data set [6] is described as follows: Liposome average diameter by dynamic light scattering. The class given is physicochemical. The following applies: extruded through 50 nm membrane, Tris buffer pH 7.4. The source says: (§1) It is likely that 4 will form bilayers. […] After 20 extrusions, a homogeneous liposome solution was observed.
Data set [7] in a line: Transmission electron micrographs (TEM) of vesicles. The class given is physicochemical.
Source text: as §1

Data set [8] relates to calf thymus DNA. The experiment in a line: Ethidium bromide displacement fluorescence assay. The class given is binding. The following applies: fluorescence intensity as a function of vector/DNA charge ratio. On the procedure: The propensity of the lipids to bind DNA was measured via an ethidium bromide displacement fluorescence assay. This assay entailed measuring the reduction of the fluorescence intensity of the DNA-intercalated ethidium bromide, as this fluorescent probe is displaced by the cationic amphiphile. […] The results obtained with DOTAP, DOTAP/DOPE, and DOPC/DOTAP are consistent with previous reports. A 1:1 assembly is formed between the lipids and DNA.
Binding studies were carried out by competitive displacement fluorimetric assay with DNA-bound ethidium bromide. This assay involves the addition of aliquots of the compound to a 3 mL solution of EthBr (1.3 μM) and calf thymus DNA (3 μM) in buffer (100 mM NaCl, 100 mM Tris, pH 7.4) with the decrease of fluorescence (λexc=546 nm, λem=600 nm; 1 cm path length glass cuvette, slit width 3 nm) recorded after 5 min equilibrium time following each addition.

The test system of data set [9] is L6 cells. As to the kind of experiment: Cytotoxicity, formazan-based proliferation assay and total protein assay, L6 cells. The class given is cell-based. The following applies: 24 hours after addition.
In data set [10] the test system is esterase.
Experimental: Next, we prepared vesicles of 4, 4/DOTAP, and DOPC/DOTAP. A chloroform solution containing 4, 4/DOTAP, or DOPC/DOTAP was added to a pear shaped flask and the solution was evaporated under vacuum leaving a thin film deposited onto the flask wall. One mL of Tris buffer (100 mM Tris, 100 mM NaCl, pH 7.4) was then added and the film was peeled off by vortexing. The milky aqueous suspension was extruded through a polycarbonate membrane (50 nm) using an Aventi polar lipids mini-extruder. After 20 extrusions, a homogeneous liposome solution was observed.

As to “1,2-Di-tetradecanoyl-3-Lys-Trp-Lys-rac-glycerol”, the transfection capability result in data set [1] (CHO cells, Example 15, β-gal reporter gene) was “high transfection capability”. The cell cytotoxicity entry in [2] (CHO cells, Example 16, MTS and total protein assays) was “minimal cell cytotoxicity”. Moreover, the cells transfected entry in data set [3] is “more than 70%”. For the same compound, the “knockdown of the protein” value in [4] is given as “greater than 80%”.
`NCCOP(=O)(O)OCC(COC(=O)CCCCCCCCCCC(=O)OCc1ccccc1)OC(=O)CCCCCCCCCCC(=O)OCc1ccccc1` (racemic) [1,2-Di-dodecanedioyl benzyl ester-3-phosphoethanolamine-rac-glycerol]: the cell cytotoxicity entry in data set [2] is “minimal cell cytotoxicity”.
In [5], `C[N+](C)(C)CCOP(=O)([O-])OCC(COC(=O)CCCCCCCCCCC(=O)OCc1ccccc1)OC(=O)CCCCCCCCCCC(=O)OCc1ccccc1` (racemic) [Compound 4, 1,2-Di-dodecanedioyl benzyl ester-3-phosphocholine-rac-glycerol] returned a phase-transition temperature of around 44 °C. In data set [6], the “average diameter of the liposomes” value is 79 nm. Besides, the “average size of vesicular organizations” value in data set [7] is recorded as “about 100 nM”. Also, in data set [8], the “displacement of DNA-intercalated ethidium bromide (fluorescence intensity)” value (“displacement” below) was “do not displace EtBr”. In addition, the “transfection efficiency (β-gal activity normalized to total protein)” value in [1] (assessed after 48 h, result in words) is reported as “does not transfect DNA”. Also, the “cytotoxicity (cell proliferation/number as percentage of non-treated cells)” value in data set [2] (CHO cells) and in [9] was “None of the amphiphiles showed significant cytotoxicity” in each case. Also, the “time to loss of 4” value in data set [10] is “four”. For the same compound, the “time to complete hydrolysis of 4 to yield 5” value in data set [10] (esterase added to liposomes prepared from 4, HPLC) was found to be 8 h.
`CCCCCCCC/C=C\CCCCCCCC(=O)OC[C@H](COP(=O)([O-])OCC[N+](C)(C)C)OC(=O)CCCCCCC/C=C\CCCCCCCC` [DOPC, dioleylphosphatidyl choline]: in data set [8], the “displacement” value is “do not displace EtBr”.
As to `CCCCCCCC/C=C\CCCCCCCC(=O)OC[C@H](COP(=O)(O)OCCN)OC(=O)CCCCCCC/C=C\CCCCCCCC` [DOPE, dioleylphosphatidyl ethanolamine], the “displacement” value in data set [8] is listed as “do not displace EtBr”.
With `CCCCCCCC/C=C\CCCCCCCC(=O)OCC(C[N+](C)(C)C)OC(=O)CCCCCCC/C=C\CCCCCCCC` (stereo not shown) [DOTAP, 1,2-dioleoyloxy-3-(trimethylammonio)-propane, reference compound], the “displacement” value in data set [8] is given as “fluorescence intensity decreases”. Moreover, the “cytotoxicity (cell proliferation/number as percentage of non-treated cells)” value in data set [2] (CHO cells) and in [9] was “None of the amphiphiles showed significant cytotoxicity” each time.
